Laboratory results: patent US9802899B2, “Heterocyclic compounds as pesticides” (BAYER CROPSCIENCE AG, priority 2012, dated 2017)

Test: Determination of the log P values by HPLC (formic acid method)
Type: physicochemical
Conditions: reversed-phase HPLC column (C 18), reversed-phase column (C 18), acidic range (pH 3.4), 55° C.
Protocol: 1) Description of Method for Determination of the Log P Values (Formic Acid Method)
Eluents for determination in the acidic range (pH 3.4):
Eluent A: acetonitrile+1 ml of formic acid/liter. Eluent B: water+0.9 ml of formic acid/liter.
The lambda max values were determined in the maxima of the chromatographic signals using the UV spectra from 200 nm to 400 nm.

chromatographic logP	Compound
2.65	N#Cc1cc(F)cc(F)c1-n1ccc(NC(=O)c2ccccc2C(F)(F)F)n1 [Compound I-1-393, N-[1-(2-Cyano-4,6-difluorophenyl)-1H-pyrazol-3-yl]-2-(trifluoromethyl)benzamide]

Same assay, conditions: reversed-phase column (C 18), acidic range (pH 3.4), 55° C.

Compound	log P
O=C(Nc1ccn(-c2ccccc2Cl)n1)c1c(F)cccc1C(F)(F)F [Compound I-1-384]	3.05
O=C(Nc1ccn(-c2cnc(Cl)cn2)n1)c1ccccc1C(F)(F)F [Compound I-1-385]	2.94
O=C(Nc1ccn(-c2cnc(Cl)cn2)n1)c1cccnc1C(F)(F)F [Compound I-1-386]	2.45
O=C(Nc1ccn(-c2cnc(Cl)cn2)n1)c1c(F)cccc1F [Compound I-1-387]	2.67
O=C(Nc1ccn(-c2cnc(Cl)cn2)n1)c1ccccc1Br [Compound I-1-388]	2.84
O=C(Nc1ccn(-c2cnc(Cl)cn2)n1)c1ccccc1Cl [Compound I-1-389]	2.82
O=C(Nc1ccn(-c2cnc(Cl)cn2)n1)c1ccccc1I [Compound I-1-390]	2.96
O=C(Nc1ccn(-c2cccnc2Cl)n1)c1ccccc1C(F)(F)F [Compound I-1-391]	2.31
O=C(Nc1ccn(-c2cccnc2Cl)n1)c1ccccc1Cl [Compound I-1-392]	2.13
N#Cc1ccccc1-n1ccc(NC(=O)c2ccccc2I)n1 [Compound I-1-394]	2.53
CCOc1c(Cl)cccc1-n1ccc(NC(=O)c2cccnc2C(F)(F)F)n1 [Compound I-1-395]	3.21
CCOc1c(F)cccc1-n1ccc(NC(=O)c2ccccc2Br)n1 [Compound I-1-396]	2.91
CCOc1c(F)cccc1-n1ccc(NC(=O)c2ccccc2Cl)n1 [Compound I-1-397]	2.74
CCOc1cccc(Cl)c1-n1ccc(NC(=O)c2ccccc2Br)n1 [Compound I-1-398]	3.03
CCOc1cccc(F)c1-n1ccc(NC(=O)c2ccccc2Br)n1 [Compound I-1-399]	2.87
O=C(Nc1ccn(-c2cncc(F)n2)n1)c1ccccc1C(F)(F)F [Compound I-1-401]	3.33
O=C(Nc1ccn(-c2cncc(F)n2)n1)c1cccnc1C(F)(F)F [Compound I-1-402]	2.76

Compound	log P
O=C(Nc1ccn(-c2cncc(F)n2)n1)c1cccnc1Br [Compound I-1-404]	3.19
O=C(Nc1ccn(-c2cncc(F)n2)n1)c1ccccc1I [Compound I-1-405]	3.28
COc1ccccc1-n1ccc(NC(=O)c2ccccc2C(F)(F)F)n1 [Compound I-1-406]	2.84
COc1ccccc1-n1ccc(NC(=O)c2cccnc2C(F)(F)F)n1 [Compound I-1-407]	2.37
COc1ccccc1-n1ccc(NC(=O)c2c(F)cccc2F)n1 [Compound I-1-408]	2.57
COc1ccccc1-n1ccc(NC(=O)c2cccnc2Br)n1 [Compound I-1-409]	2.12
COc1ccccc1-n1ccc(NC(=O)c2ccccc2Cl)n1 [Compound I-1-410]	2.70
COc1ccccc1-n1ccc(NC(=O)c2ccccc2I)n1 [Compound I-1-411]	2.83
O=C(Nc1ccn(-c2ccccc2[N+](=O)[O-])n1)c1ccccc1C(F)(F)F [Compound I-1-415]	2.63
O=C(Nc1ccn(-c2ccccc2[N+](=O)[O-])n1)c1cccnc1C(F)(F)F [Compound I-1-416]	2.16
O=C(Nc1ccn(-c2ccccc2[N+](=O)[O-])n1)c1c(F)cccc1F [Compound I-1-417]	2.34
O=C(Nc1ccn(-c2ccccc2[N+](=O)[O-])n1)c1ccccc1Br [Compound I-1-418]	2.50
O=C(Nc1ccn(-c2ccccc2[N+](=O)[O-])n1)c1ccccc1I [Compound I-1-419]	2.61
O=C(Nc1ccn(-c2ccccn2)n1)c1ccccc1Cl [Compound I-1-420]	2.33
O=C(Nc1ccn(-c2ncc(C(F)(F)F)cc2Cl)n1)c1ccccc1I [Compound I-1-421]	3.43
O=C(Nc1ccn(-c2ncccc2C(F)(F)F)n1)c1ccccc1C(F)(F)F [Compound I-1-422]	2.72
O=C(Nc1ccn(-c2ncccc2C(F)(F)F)n1)c1c(F)cccc1F [Compound I-1-423]	2.46

Further lines, results first:

log P	Compound
2.61	O=C(Nc1ccn(-c2ncccc2C(F)(F)F)n1)c1ccccc1Br [Compound I-1-424]
2.57	O=C(Nc1ccn(-c2ncccc2C(F)(F)F)n1)c1ccccc1Cl [Compound I-1-425]
2.69	O=C(Nc1ccn(-c2ncccc2C(F)(F)F)n1)c1cccnc1C(F)(F)F [Compound I-1-426]
2.72	O=C(Nc1ccn(-c2ncccc2C(F)(F)F)n1)c1ccccc1I [Compound I-1-427]
2.77	O=C(Nc1ccn(-c2ncc(Cl)cc2Cl)n1)c1c(F)cccc1F [Compound I-1-429]
2.95	O=C(Nc1ccn(-c2ncc(Cl)cc2Cl)n1)c1ccccc1Br [Compound I-1-430]
2.29	O=C(Nc1ccn(-c2ncc(Cl)cc2Cl)n1)c1cccnc1Br [Compound I-1-431]
2.91	O=C(Nc1ccn(-c2ncc(Cl)cc2Cl)n1)c1ccccc1Cl [Compound I-1-432]
3.06	O=C(Nc1ccn(-c2ncc(Cl)cc2Cl)n1)c1ccccc1I [Compound I-1-433]
2.61	O=C(Nc1ccn(-c2ncc(Cl)cc2Cl)n1)c1cccc(F)c1C(F)(F)F [Compound I-1-434]
1.83	Cn1cc(C(=O)Nc2ccn(-c3ncc(Cl)cc3Cl)n2)c(I)n1 [Compound I-1-435]
2.61	O=C(Nc1ccn(-c2ncc(Cl)cc2Cl)n1)c1ccc(F)cc1C(F)(F)F [Compound I-1-436]
2.93	O=C(Nc1ccn(-c2ncc(Cl)cc2Cl)n1)c1cc(Cl)ccc1C(F)(F)F [Compound I-1-437]
2.85	Cc1nc(-n2ccc(NC(=O)c3ccccc3C(F)(F)F)n2)c(F)cc1F [Compound I-1-439]
2.38	Cc1nc(-n2ccc(NC(=O)c3cccnc3C(F)(F)F)n2)c(F)cc1F [Compound I-1-440]
2.56	Cc1nc(-n2ccc(NC(=O)c3c(F)cccc3F)n2)c(F)cc1F [Compound I-1-441]
2.71	Cc1nc(-n2ccc(NC(=O)c3ccccc3Br)n2)c(F)cc1F [Compound I-1-442]
2.16	O=C(Nc1ccn(-c2ncc(F)cc2F)n1)c1ccnn1C(F)F [Compound I-1-443]
2.65	Cc1nn(C(F)F)c(C(=O)Nc2ccn(-c3ncc(F)cc3F)n2)c1F [Compound I-1-444]
1.60	Cc1nn(C)c(C)c1C(=O)Nc1ccn(-c2ncc(F)cc2F)n1 [Compound I-1-445]
1.54	Cc1nn(C)cc1C(=O)Nc1ccn(-c2ncc(F)cc2F)n1 [Compound I-1-446]
2.03	Cc1nn(C)c(C(=O)Nc2ccn(-c3ncc(F)cc3F)n2)c1[N+](=O)[O-] [Compound I-1-447]
1.83	Cc1c([N+](=O)[O-])c(C(=O)Nc2ccn(-c3ncc(F)cc3F)n2)nn1C [Compound I-1-448]

log P	Compound
1.67	Cn1ncnc1C(=O)Nc1ccn(-c2ncc(F)cc2F)n1 [Compound I-1-449]
3.65	Cn1nc(C(F)(F)C(F)(F)F)c(C(F)(F)F)c1C(=O)Nc1ccn(-c2ncc(F)cc2F)n1 [Compound I-1-450]
2.79	Cn1nc(C(F)(F)F)c(C(=O)Nc2ccn(-c3ncc(F)cc3F)n2)c1C(F)(F)F [Compound I-1-451]
2.27	Cn1ccc([N+](=O)[O-])c1C(=O)Nc1ccn(-c2ncc(F)cc2F)n1 [Compound I-1-452]
1.69	Cn1cc([N+](=O)[O-])c(C(=O)Nc2ccn(-c3ncc(F)cc3F)n2)n1 [Compound I-1-453]
1.58	Cn1cnc(C(=O)Nc2ccn(-c3ncc(F)cc3F)n2)c1[N+](=O)[O-] [Compound I-1-454]
3.37	CCC(C)n1ncc(Cl)c1C(=O)Nc1ccn(-c2ncc(F)cc2F)n1 (centres unmarked) [Compound I-1-455]
3.28	CCC(C)n1ncc(I)c1C(=O)Nc1ccn(-c2ncc(F)cc2F)n1 (centres unmarked) [Compound I-1-456]
2.13	O=C(Nc1ccn(-c2ncc(F)cc2F)n1)c1cccnc1CC(F)(F)F [Compound I-1-457]
2.53	O=C(Nc1ccn(-c2ncc(F)cc2F)n1)c1ccccc1OC(F)F [Compound I-1-458]
2.50	O=C(Nc1ccn(-c2ncc(F)cc2F)n1)c1ccccc1OC(F)F [Compound I-1-459]
1.77	O=C(Nc1ccn(-c2ncc(F)cc2F)n1)c1cccnc1C(F)F [Compound I-1-460]
2.14	CSc1ncccc1C(=O)Nc1ccn(-c2ncc(F)cc2F)n1 [Compound I-1-461]
1.69	CS(=O)(=O)c1ccccc1C(=O)Nc1ccn(-c2ncc(F)cc2F)n1 [Compound I-1-462]
2.77	O=C(Nc1ccn(-c2ncc(F)cc2F)n1)c1ccccc1OC(F)(F)F [Compound I-1-463]
2.53	O=C(Nc1ccn(-c2ncc(F)cc2F)n1)c1cccnc1OC(F)(F)F [Compound I-1-464]
2.44	O=C(Nc1nn(-c2ncc(F)cc2F)cc1F)c1ccccc1C(F)(F)F [Compound I-1-465]
2.96	CN(C(=O)c1ccccc1C(F)(F)F)c1ccn(-c2ncc(F)cc2F)n1 [Compound I-1-467]
3.23	CCN(C(=O)c1ccccc1C(F)(F)F)c1ccn(-c2ncc(F)cc2F)n1 [Compound I-1-468]
3.38	C=CCN(C(=O)c1ccccc1C(F)(F)F)c1ccn(-c2ncc(F)cc2F)n1 [Compound I-1-469]
3.05	C#CCN(C(=O)c1ccccc1C(F)(F)F)c1ccn(-c2ncc(F)cc2F)n1 [Compound I-1-470]
3.62	O=C(c1ccccc1C(F)(F)F)N(CC1CC1)c1ccn(-c2ncc(F)cc2F)n1 [Compound I-1-471]
